Laboratory results: article PMC11642016 (International Journal of Molecular Sciences, 2024)
“And” between values parts separate entries of the source, which are not always exact repeats. Identical values can stand only once. Like-named read-outs stand apart in the source and are kept apart here. Values belong to the molecule of their own block, whether it stands above or below them.

Legend:
[1] = tested on: Fadu cells; experiment: CellTiter-Glo luminescent cell viability assay, Fadu; conditions: for viability at 2.8 µM: read-out: Cell Viability (% of Control) 2.8 µM, Fadu; for viability at 2.8 µM / viability at 8.3 µM / viability at 25 µM: mean ± SD, n = 2; for viability at 8.3 µM: read-out: Cell Viability (% of Control) 8.3 µM, Fadu; for viability at 25 µM: read-out: Cell Viability (% of Control) 25 µM, Fadu
[2] = tested on: PANC-1 cells; experiment: CellTiter-Glo luminescent cell viability assay, PANC-1; conditions: for viability at 2.8 µM: read-out: Cell Viability (% of Control) 2.8 µM, PANC-1; for viability at 2.8 µM / viability at 8.3 µM / viability at 25 µM: mean ± SD, n = 2; for viability at 8.3 µM: read-out: Cell Viability (% of Control) 8.3 µM, PANC-1; for viability at 25 µM: read-out: Cell Viability (% of Control) 25 µM, PANC-1
[3] = tested on: PANC-1 and Fadu cells; experiment: CellTiter-Glo viability, statements covering both cancer cell lines; format: cell-based, human; conditions: for viability at 25 µM: Homo sapiens, in either of the cancer cell lines, read-out: drop in viability at 25 µM
[4] = tested on: non-tumorous primary fibroblast cells; experiment: CellTiter-Glo luminescent cell viability assay, primary fibroblasts; conditions: 72 h; for Primer fibroblast Cell viability (% of controll): dose–response, individual replicates
Description: (§1) Primary fibroblast cultures were prepared from human skin biopsies and maintained in DMEM supplemented with 10% FBS, 1% penicillin-streptomycin, and 1% MEM Non-Essential Amino Acids Solution (Thermo Fisher Scientific). […] All cell lines were cultured in a humidified atmosphere at 37 °C and 5% CO2, passaged twice a week, and the experiments were performed on cells between passage 5 and 15. The cell lines were routinely screened for the absence of mycoplasma infection (DAPI staining).
(§2) The effects of the synthesized compounds on cell viability were measured using the CellTiter-Glo® luminescent cell viability assay (Promega, Madison, WI, USA), according to the manufacturer’s instructions. Briefly, cells were seeded onto a flat-bottomed, white 96-well plate (BRANDplates, cat. no.: 781965)), with the following densities: PANC-1: 750 cells/well, Fadu: 2000 cells/well, primary fibroblasts: 2000 cells/well, HEK293T WT: 1000 cells/well, HEK293T CLPP^−/−: 2500 cells/well. After seeding, cells were incubated for a further 48 h before treatment. Cells were treated with the compounds for 72 h. Three concentrations (25.0 µM; 8.3 µM; 2.8 µM) were applied during the initial cell viability screening, while for the determination of dose–response curves, 1.5-fold serially diluted compound concentrations were applied (range: 26 µM–0.7 µM). After treatment, the luminescence signal was recorded using a microplate reader (BioTek Synergy 2 Multi-Mode Reader, BioTek, Winooski, VT, USA).
(§3) Data analysis was performed using GraphPad Prism 9.5.0 software (GraphPad Software, San Diego, CA, USA). […] The dose–response curves were generated by four-parameter nonlinear regression, and the IC50 values were determined as the means ± SEM of the best-fit values of 3 independent measurements. The R^2 values were consistently above 0.93, indicating a strong fit of the model to the experimental data (Supplementary S.89). […] Dunnett’s post hoc test was applied to adjust for multiple comparisons, minimizing the likelihood of false positive results. Assumptions for ANOVA, including normality (assessed via QQ plots) and homogeneity of variance (tested using the Brown–Forsythe test), were verified. The following significance levels were applied: * p < 0.05, ** p < 0.01, *** p < 0.001, **** p < 0.0001. […] The tumor selectivity of the compounds was quantitatively characterized by the selectivity index (SI). This parameter was calculated as the ratio of the average best-fit IC50 value for primary fibroblasts and the best-fit IC50 value for the corresponding tumor cells (PANC-1 or Fadu).

[5] = as above; conditions: human, primary skin fibroblasts (non-tumorous), Primer fibroblast Cell viability (% of controll), 72 h, dose–response, individual replicates
Description: as §1, §2, §3

[6] = Homo sapiens, FaDu, 72 h, 72 h, first-set screening
[7] = Homo sapiens, FaDu, 72 h, 72 h, second-set screening
[8] = Homo sapiens, PANC-1, 72 h, 72 h, first-set screening
[9] = Homo sapiens, PANC-1, 72 h, 72 h, second-set screening
[10] = 0.7 μM, 72 h, dose–response, individual replicates
[11] = 1 μM, 72 h, dose–response, individual replicates
[12] = 2.3 μM, 72 h, dose–response, individual replicates
[13] = 3.4 μM, 72 h, dose–response, individual replicates
[14] = 5.1 μM, 72 h, dose–response, individual replicates
[15] = 7.7 μM, 72 h, dose–response, individual replicates
[16] = 17.3 μM, 72 h, dose–response, individual replicates
[17] = 26 μM, 72 h, dose–response, individual replicates

Structure (SMILES): NCC#Cc1cccc(CN2C(=O)C3=C(CCN(Cc4ccc(-n5cc(-c6ccccc6)nn5)cc4)C3)N3CCN=C23)c1 [2b]
viability at 2.8 µM [1, 6]: 102 ± 8%
viability at 2.8 µM [1, 7]: 117 ± 7%
viability at 8.3 µM [1, 6]: 0%
viability at 8.3 µM [1, 7]: 27 ± 12%
viability at 25 µM [1, 6]: 0%
viability at 25 µM [1, 7]: 0%
viability at 2.8 µM [2, 8]: 107 ± 1%
viability at 2.8 µM [2, 9]: 113 ± 3%
viability at 8.3 µM [2, 8]: 0%
viability at 8.3 µM [2, 9]: 0%
viability at 25 µM [2, 8]: 0%
viability at 25 µM [2, 9]: 0%
eradication of cancer cells at 8.3 µM ([3]; 8.3 µM, both PANC-1 and Fadu, first-set screening): practically complete eradication of both types of cancer cells
viability at 25 µM [3]: 0 to 1%

Structure (SMILES): NCC#Cc1cccc(CN2C(=O)C3=C(CCN(Cc4cccc(-n5cc(-c6ccccc6)nn5)c4)C3)N3CCN=C23)c1 [4b]
viability at 2.8 µM [1, 6]: 76 ± 1%
viability at 8.3 µM [1, 6]: 34 ± 3%
viability at 25 µM [1, 6]: 0%
viability at 2.8 µM [2, 8]: 87 ± 5%
viability at 8.3 µM [2, 8]: 70%
viability at 25 µM [2, 8]: 0%
viability at 25 µM [3]: 0 to 1%

IC50 ([2]; Homo sapiens, PANC-1, 72 h, read-out: IC50 Value ± SEM PANC-1, 72 h treatment, best-fit values, n = 3): 2.6 ± 0.03 µM
IC50 ([2]; Homo sapiens, PANC-1, read-out: PANC-1 IC50 values, Mean, mean of independently fitted replicate IC50 values (Supplement S.6)): 2.63 µM
Structure (SMILES): CNCC#Cc1cccc(CN2C(=O)C3=C(CCN(Cc4ccc(-n5cc(-c6cc(F)cc(F)c6)nn5)cc4)C3)N3CCN=C23)c1 [43c]
Fadu Cell viability (% of controll) [1, 10]: 99 % of controll and 100 % of controll
Fadu Cell viability (% of controll) [1, 11]: 102 % of controll and 93 % of controll
Fadu Cell viability (% of controll) [1, 12]: 90 % of controll and 79 % of controll
Fadu Cell viability (% of controll) [1, 13]: 79 % of controll and 59 % of controll and 42 % of controll
Fadu Cell viability (% of controll) [1, 14]: 0 % of controll
Fadu Cell viability (% of controll) [1, 15]: 0 % of controll
Fadu Cell viability (% of controll) [1, 16]: 0 % of controll
Fadu Cell viability (% of controll) [1, 17]: 0 % of controll
viability at 0.7 µM ([1]; Homo sapiens, FaDu, 72 h, read-out: Fadu Cell viability (% of controll), 0.7 μM, 72 h, dose–response, individual replicates): 94%
viability at 1 µM ([1]; Homo sapiens, FaDu, 72 h, read-out: Fadu Cell viability (% of controll), 1 μM, 72 h, dose–response, individual replicates): 97%
viability at 1.5 µM ([1]; Homo sapiens, FaDu, 72 h, read-out: Fadu Cell viability (% of controll), 1.5 μM, 72 h, dose–response, individual replicates): 90%
viability at 2.3 µM ([1]; Homo sapiens, FaDu, 72 h, read-out: Fadu Cell viability (% of controll), 2.3 μM, 72 h, dose–response, individual replicates): 89%
viability at 5.1 µM ([1]; Homo sapiens, FaDu, 72 h, read-out: Fadu Cell viability (% of controll), 5.1 μM, 72 h, dose–response, individual replicates): 0%
viability at 7.7 µM ([1]; Homo sapiens, FaDu, 72 h, read-out: Fadu Cell viability (% of controll), 7.7 μM, 72 h, dose–response, individual replicates): 0%
viability at 17.3 µM ([1]; Homo sapiens, FaDu, 72 h, read-out: Fadu Cell viability (% of controll), 17.3 μM, 72 h, dose–response, individual replicates): 0%
viability at 26 µM ([1]; Homo sapiens, FaDu, 72 h, read-out: Fadu Cell viability (% of controll), 26 μM, 72 h, dose–response, individual replicates): 0%
IC50 ([1]; Homo sapiens, FaDu, 72 h, read-out: IC50 Value ± SEM Fadu, 72 h treatment, best-fit values, n = 3): 3.6 ± 0.09 µM
IC50 ([1]; Homo sapiens, FaDu, read-out: Fadu IC50 values, Mean, mean of independently fitted replicate IC50 values (Supplement S.6)): 3.48 µM
Selectivity Index (SI) Fibroblast/Fadu ([1]; ratio of mean best-fit IC50 for primary fibroblasts and best-fit IC50 for Fadu): 1.0
Primer fibroblast Cell viability (% of controll) ([4]; 0.7 μM): 98 % of controll and 102 % of controll
Primer fibroblast Cell viability (% of controll) ([4]; 1 μM): 104 % of controll and 106 % of controll
Primer fibroblast Cell viability (% of controll) ([4]; 1.5 μM): 99 % of controll and 95 % of controll and 118 % of controll
Primer fibroblast Cell viability (% of controll) ([4]; 2.3 μM): 97 % of controll and 98 % of controll
Primer fibroblast Cell viability (% of controll) ([4]; 3.4 μM): 95 % of controll and 99 % of controll
Primer fibroblast Cell viability (% of controll) ([4]; 5.1 μM): 0 % of controll
Primer fibroblast Cell viability (% of controll) ([4]; 7.7 μM): 0 % of controll
Primer fibroblast Cell viability (% of controll) ([4]; 17.3 μM): 0 % of controll
Primer fibroblast Cell viability (% of controll) ([4]; 26 μM): 0 % of controll
IC50 ([4]; Homo sapiens, Fibroblast, read-out: IC50 Value ± SEM Primary Fibroblast, 72 h treatment, best-fit values, n = 3): 3.7 ± 1.73 µM
viability at 72 h, 0.7 µM ([5]; 0.7 μM): 91%
viability at 72 h, 1 µM ([5]; 1 μM): 92%
viability at 72 h, 2.3 µM ([5]; 2.3 μM): 103%
viability at 72 h, 3.4 µM ([5]; 3.4 μM): 80%
viability at 72 h, 5.1 µM ([5]; 5.1 μM): 0%
viability at 72 h, 7.7 µM ([5]; 7.7 μM): 0%
viability at 72 h, 17.3 µM ([5]; 17.3 μM): 0%
viability at 72 h, 26 µM ([5]; 26 μM): 0%
PANC-1 Cell viability (% of controll) [2, 10]: 110 % of controll and 102 % of controll
PANC-1 Cell viability (% of controll) [2, 11]: 99 % of controll and 105 % of controll
PANC-1 Cell viability (% of controll) ([2]; 1.5 μM, 72 h, dose–response, individual replicates): 103 % of controll
PANC-1 Cell viability (% of controll) [2, 12]: 80 % of controll and 82 % of controll
PANC-1 Cell viability (% of controll) [2, 13]: 5 % of controll and 8 % of controll
PANC-1 Cell viability (% of controll) [2, 14]: 0 % of controll
PANC-1 Cell viability (% of controll) [2, 15]: 0 % of controll
PANC-1 Cell viability (% of controll) [2, 16]: 0 % of controll
PANC-1 Cell viability (% of controll) [2, 17]: 0 % of controll
viability at 0.7 µM ([2]; Homo sapiens, PANC-1, 72 h, read-out: PANC-1 Cell viability (% of controll), 0.7 μM, 72 h, dose–response, individual replicates): 104%
viability at 1 µM ([2]; Homo sapiens, PANC-1, 72 h, read-out: PANC-1 Cell viability (% of controll), 1 μM, 72 h, dose–response, individual replicates): 104%
viability at 1.5 µM ([2]; Homo sapiens, PANC-1, 72 h, read-out: PANC-1 Cell viability (% of controll), 1.5 μM, 72 h, dose–response, individual replicates): 100%
viability at 2.3 µM ([2]; Homo sapiens, PANC-1, 72 h, read-out: PANC-1 Cell viability (% of controll), 2.3 μM, 72 h, dose–response, individual replicates): 89%
viability at 3.4 µM ([2]; Homo sapiens, PANC-1, 72 h, read-out: PANC-1 Cell viability (% of controll), 3.4 μM, 72 h, dose–response, individual replicates): 6%
viability at 5.1 µM ([2]; Homo sapiens, PANC-1, 72 h, read-out: PANC-1 Cell viability (% of controll), 5.1 μM, 72 h, dose–response, individual replicates): 0%
viability at 7.7 µM ([2]; Homo sapiens, PANC-1, 72 h, read-out: PANC-1 Cell viability (% of controll), 7.7 μM, 72 h, dose–response, individual replicates): 0%
viability at 17.3 µM ([2]; Homo sapiens, PANC-1, 72 h, read-out: PANC-1 Cell viability (% of controll), 17.3 μM, 72 h, dose–response, individual replicates): 0%
viability at 26 µM ([2]; Homo sapiens, PANC-1, 72 h, read-out: PANC-1 Cell viability (% of controll), 26 μM, 72 h, dose–response, individual replicates): 0%
Selectivity Index (SI) Fibroblast/PANC-1 ([2]; ratio of mean best-fit IC50 for primary fibroblasts and best-fit IC50 for PANC-1): 1.4
